Source: patent US20210380556A1, “HETEROARYLAZOLE COMPOUND AND PEST CONTROL AGENT” (Nippon Soda Co., Ltd., priority 2018, published 2021)

Experiments:
[1] = test system: Mythimna separata; experiment: Test Example 1: efficacy on Mythimna separata (treated artificial feed); assay type: in vivo; settings: 1 μl of emulsion (I) (5% active ingredient) in 0.8 g artificial feed; second instar larvae; 25° C.; fifth day
Excerpt: (§1) 5 parts of the heteroaryl azole compound of the present invention, 93.6 parts of dimethylformamide, and 1.4 parts of polyoxyethylene alkyl aryl ether were mixed and dissolved to prepare emulsion (I) containing 5% of the active ingredient.
For a control, 98.5 parts of dimethylformamide and 1.5 parts of polyoxyethylene alkyl aryl ether were mixed and dissolved to prepare emulsion (II).
(§2) Insecticidal rate (%)=(The number of dead insects/The number of tested insects)×100
0.8 g of commercially available artificial feed (Insecta LFS, manufactured by Nosan Corp.) and 1 μl of the emulsion (I) were well mixed to obtain test feed.
A plastic test container (capacity: 1.4 ml) was packed with 0.2 g of the test feed per treatment plot. Then, two second instar larvae of Mythimna separata were inoculated to each treatment plot. A plastic lid was put on the test container so as to prevent escape of the second instar larvae of Mythimna separata. The container was placed in a thermostat chamber of 25° C. On the fifth day, the insecticidal rate and the food intake were examined. The test was conducted in duplicate.
The insecticidal rate and the food intake of a control plot were examined in the same way as in Test Example 1 except that the emulsion (I) was changed to the emulsion (II).

[2] = test system: Plutella xylostella; experiment: Test Example 3: efficacy on Plutella xylostella (cabbage leaf dip); assay type: in vivo; settings: foliar, 72 h, cabbage leaves dipped 30 seconds, second instar larvae, after 3 days, read-out: insecticidal rate
Procedure: as §1, §2
The emulsion (I) was diluted with water such that the concentration of the compound of the present invention was 125 ppm. Cabbage leaves were dipped in the dilution for 30 seconds. The resulting cabbage leaves were placed in a petri dish. Five second instar larvae of Plutella xylostella were released thereto. The petri dish was placed in a thermostat chamber having a temperature of 25° C. and a humidity of 60%. Life and death were determined after 3 days from the release of the insects, and the insecticidal rate was calculated. The test was conducted in duplicate.

[3] = test system: Musca domestica; experiment: Test Example 9: efficacy on Musca domestica (treated sugar cube); assay type: in vivo; settings: 100 ppm per g of a cube of sugar; female adults; 25° C.; after hours (number not given)
Procedure: as §2
The compound of the present invention was diluted with acetone and added dropwise at 100 ppm per g of a cube of sugar. The cube of sugar was placed in a plastic cup. Ten female adults of Musca domestica were released, and a lid was put on the plastic cup. The plastic cup was stored at 25° C. Life and death were determined after hours from the release of the insects, and the insecticidal rate was calculated. The test was conducted in duplicate.

SMILES	insecticidal rate or food intake as compared with the control plot [1]	pest or weed control at 125 ppm [2] [%]	other results
CCS(=O)(=O)c1cnc(-n2ncnc2N)nc1-c1ncc(C(F)(F)C(F)(F)C(F)(F)C(F)(F)F)n1C [a-6]	insecticidal rate of 100% for Mythimna separata or a food intake of 10% or less	≥ 80	
CCS(=O)(=O)c1cnc(-c2ncnn2C)nc1-c1ncc(C(F)(F)C(F)(F)C(F)(F)C(F)(F)F)n1C [a-10]		≥ 80	
CCS(=O)(=O)c1cc(-c2ncccn2)cnc1-c1nnc(C(F)(F)C(F)(F)C(F)(F)C(F)(F)F)n1C [c-5]	insecticidal rate of 100% for Mythimna separata or a food intake of 10% or less	≥ 80	
CCS(=O)(=O)c1cnc(-n2cnc(N)n2)nc1-c1ncc(C(F)(F)C(F)(F)C(F)(F)C(F)(F)F)n1C			melting point: 219 to 221 °C
CCS(=O)(=O)c1cnc(-c2ncccn2)nc1-c1ncc(C(F)(F)C(F)(F)C(F)(F)C(F)(F)F)n1C [a-4]		≥ 80	
CCS(=O)(=O)c1cnc(-c2ncn(C)n2)nc1-c1ncc(C(F)(F)C(F)(F)C(F)(F)C(F)(F)F)n1C [a-2, 5-(ethylsulfonyl)-2-(1-methyl-1H-1,2,4-triazol-3-yl)-4-(1-methyl-5-(perfluorobutyl)-1H-imidazol-2-yl)pyrimidine]	insecticidal rate of 100% for Mythimna separata or a food intake of 10% or less	≥ 80	
CCS(=O)(=O)c1cc(-c2ncccn2)cnc1-c1ncc(C(F)(F)C(F)(F)C(F)(F)C(F)(F)F)n1C [b-4]	insecticidal rate of 100% for Mythimna separata or a food intake of 10% or less		insecticidal rate [3]: ≥ 80%
CCS(=O)(=O)c1cc(-n2ccc(C(F)(F)F)n2)cnc1-c1ncc(C(F)(F)C(F)(F)C(F)(F)F)n1C [b-36]	insecticidal rate of 100% for Mythimna separata or a food intake of 10% or less		
CCS(=O)(=O)c1cc(Br)cnc1-c1nnc(C(F)(F)C(F)(F)C(F)(F)C(F)(F)F)n1C			melting point: 74 to 76 °C
CCS(=O)(=O)c1cc(C(C)(C)C#N)cnc1-c1ncc(C(F)(F)C(F)(F)C(F)(F)F)n1C [b-42]	insecticidal rate of 100% for Mythimna separata or a food intake of 10% or less		
CCS(=O)(=O)c1cc(C2CC2)cnc1-c1nnc(C(F)(F)C(F)(F)C(F)(F)C(F)(F)F)n1C [c-4]		≥ 80	
CCS(=O)(=O)c1cc(-c2cncnc2)cnc1-c1ncc(C(F)C(F)(F)C(F)(F)F)n1C (centres unmarked) [b-35]	insecticidal rate of 100% for Mythimna separata or a food intake of 10% or less		
CCS(=O)(=O)c1cnc(-c2ncn(C)n2)nc1-c1ncc(C(F)(F)C(F)(F)C(F)(F)F)n1C [a-1]	insecticidal rate of 100% for Mythimna separata or a food intake of 10% or less	≥ 80	
CCS(=O)(=O)c1cnc(N)nc1-c1ncc(C(F)(F)C(F)(F)C(F)(F)C(F)(F)F)n1C [a-8]	insecticidal rate of 100% for Mythimna separata or a food intake of 10% or less		
CCS(=O)(=O)c1cc(-c2ccccn2)cnc1-c1ncc(C(F)(F)C(F)(F)C(F)(F)C(F)(F)F)n1C [b-59]	insecticidal rate of 100% for Mythimna separata or a food intake of 10% or less		
CCS(=O)(=O)c1cc(/C=N/OCC(F)(F)C(F)(F)F)cnc1-c1ncc(C(F)C(F)(F)C(F)(F)F)n1C (centres unmarked) [c-1]	insecticidal rate of 100% for Mythimna separata or a food intake of 10% or less	≥ 80	
CCS(=O)(=O)c1cc(-c2ncccn2)cnc1-c1ncc(C(F)C(F)(F)C(F)(F)F)n1C (centres unmarked) [b-24]	insecticidal rate of 100% for Mythimna separata or a food intake of 10% or less		
CCS(=O)(=O)c1cc(-c2ncccc2F)cnc1-c1ncc(C(F)(F)C(F)(F)C(F)(F)F)n1C [b-55]	insecticidal rate of 100% for Mythimna separata or a food intake of 10% or less		
CCS(=O)(=O)c1cc(C(F)(F)F)cnc1-c1ncc(C(F)(F)C(F)(F)C(F)(F)F)n1C [b-15]	insecticidal rate of 100% for Mythimna separata or a food intake of 10% or less		
CCS(=O)(=O)c1cc(-c2ncccn2)cnc1-c1ncc(C(F)(F)C(F)(F)C(F)(F)F)n1C [b-19, 2-(5-(ethylsulfonyl)-6-(1-methyl-5-(perfluoropropyl)-1H-imidazol-2-yl)pyridin-3-yl)pyrimidine]		≥ 80	
